# According to ChEMBL document CHEMBL1201862, “PubChem BioAssay data set” (2004):
# Calls of active or inactive are those of the source.
# Tests used:
# [1] = target: Delta-type opioid receptor (Homo sapiens, UniProt P41143); assay: Counterscreen for agonists of heterodimerization of the mu 1 (OPRM1) and delta 1 (OPRD1) opioid receptors: Luminescence-based cell-based high throughput dose response assay to identify agonists of OPRD1 homodimerization. [Related pubchem assays (depositor defined):AID504326, AID504355, AID504692, AID504904, AID504905]; format: functional
# [2] = target: Mu-type opioid receptor (Homo sapiens, UniProt P35372); assay: Counterscreen for agonists of heterodimerization of the mu 1 (OPRM1) and delta 1 (OPRD1) opioid receptors: Luminescence-based cell-based high throughput dose response assay to identify agonists of OPRM1 homodimerization.; format: functional;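 note: U2OS cells expressing OPRM1 and beta-arrestin as split beta-galactosidase partners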
# [3] = target: 5-hydroxytryptamine receptor 5A (Homo sapiens, UniProt P47898); assay: Counterscreen for agonists of OPRM1-OPRD1 heterodimerization: luminescence-based cell-based high throughput dose response assay to identify agonists of 5-hydroxytryptamine (serotonin) 5A receptor (HTR5A). [Related pubchem assays (depositor defined):AID504326, AID504355, AID504692, AID504904, AID504905]; format: functional
# [4] = target: T1, Short transient receptor potential channel 4 (Mus musculus, UniProt Q9QUQ5); assay: mouse TRPC4 channel inhibitors, dose response, cell-based, HEK293 TRPC4/mu-opioid, Fluo-4 calcium (AID 434942); format: functional;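 note: potency of inhibitors blocking the TRPC4 calcium response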
# T1 sequence (Q9QUQ5 whole entry): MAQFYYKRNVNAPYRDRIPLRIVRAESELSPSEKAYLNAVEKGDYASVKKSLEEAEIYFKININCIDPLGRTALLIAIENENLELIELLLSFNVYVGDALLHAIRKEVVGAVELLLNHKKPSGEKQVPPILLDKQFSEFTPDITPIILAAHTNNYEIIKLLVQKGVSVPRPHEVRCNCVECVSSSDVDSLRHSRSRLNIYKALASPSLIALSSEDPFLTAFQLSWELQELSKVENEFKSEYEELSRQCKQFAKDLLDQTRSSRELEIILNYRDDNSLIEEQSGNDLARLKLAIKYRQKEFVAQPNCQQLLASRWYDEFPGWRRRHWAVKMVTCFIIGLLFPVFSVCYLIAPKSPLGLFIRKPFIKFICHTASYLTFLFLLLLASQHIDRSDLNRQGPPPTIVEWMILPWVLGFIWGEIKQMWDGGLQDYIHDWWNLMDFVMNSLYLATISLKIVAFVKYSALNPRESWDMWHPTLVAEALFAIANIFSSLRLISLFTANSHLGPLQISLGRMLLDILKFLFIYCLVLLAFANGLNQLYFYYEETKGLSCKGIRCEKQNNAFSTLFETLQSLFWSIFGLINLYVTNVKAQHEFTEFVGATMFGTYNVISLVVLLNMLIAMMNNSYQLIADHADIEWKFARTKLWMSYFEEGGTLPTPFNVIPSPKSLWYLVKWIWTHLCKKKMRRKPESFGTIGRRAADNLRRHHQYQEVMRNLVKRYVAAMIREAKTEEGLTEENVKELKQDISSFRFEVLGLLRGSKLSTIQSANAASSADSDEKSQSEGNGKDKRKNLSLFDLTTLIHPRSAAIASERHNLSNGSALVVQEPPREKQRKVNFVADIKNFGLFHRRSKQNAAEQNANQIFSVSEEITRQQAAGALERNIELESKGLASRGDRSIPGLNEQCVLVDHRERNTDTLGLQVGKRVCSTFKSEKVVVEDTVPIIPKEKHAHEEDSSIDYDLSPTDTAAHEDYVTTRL
# [5] = target: T2, Calpain-2 catalytic subunit (Sus scrofa, UniProt P43367); assay: pig calpain II inhibitor potency, dose response, biochemical, fluorogenic peptide substrate (AID 1420); format: functional
# T2 sequence (P43367 whole entry): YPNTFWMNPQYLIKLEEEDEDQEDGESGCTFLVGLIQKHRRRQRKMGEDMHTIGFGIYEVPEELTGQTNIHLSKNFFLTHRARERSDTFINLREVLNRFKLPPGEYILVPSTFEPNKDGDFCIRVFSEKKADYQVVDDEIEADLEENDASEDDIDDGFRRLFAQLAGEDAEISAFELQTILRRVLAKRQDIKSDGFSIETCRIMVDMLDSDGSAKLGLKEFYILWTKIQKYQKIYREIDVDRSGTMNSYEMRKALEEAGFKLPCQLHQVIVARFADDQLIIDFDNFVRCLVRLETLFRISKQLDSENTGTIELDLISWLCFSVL
# [6] = target: T3, Streptokinase A (Streptococcus pyogenes serotype M1, UniProt P10520); assay: S. pyogenes streptokinase expression inhibitors, potency, dose response, plasminogen activation absorbance, OD405 (AID 1914); format: functional, Streptococcus pyogenes M1 GAS;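 note: secreted streptokinase activity via plasminogen activation per viability signal from cell pellet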
# T3 sequence (P10520 whole entry): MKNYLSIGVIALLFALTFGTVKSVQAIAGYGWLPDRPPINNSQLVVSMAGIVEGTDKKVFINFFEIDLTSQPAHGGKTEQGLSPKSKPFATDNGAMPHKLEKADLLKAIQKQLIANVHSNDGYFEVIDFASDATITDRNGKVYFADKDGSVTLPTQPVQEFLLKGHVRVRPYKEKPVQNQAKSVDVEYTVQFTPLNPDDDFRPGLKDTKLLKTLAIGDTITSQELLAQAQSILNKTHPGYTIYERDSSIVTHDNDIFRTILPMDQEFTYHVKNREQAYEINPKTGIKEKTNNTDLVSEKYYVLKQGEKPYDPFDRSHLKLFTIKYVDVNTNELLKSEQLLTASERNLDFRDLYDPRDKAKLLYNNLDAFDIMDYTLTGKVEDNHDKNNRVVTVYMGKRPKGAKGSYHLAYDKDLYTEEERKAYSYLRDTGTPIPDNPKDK
# [7] = target: Heat shock protein HSP 90-alpha (Homo sapiens, UniProt P07900); format: functional, organism-based
# [8] = test system: Vero; assay: cells; format: functional; conditions: Chlorocebus sabaeus
# [9] = test system: Streptococcus; assay: Group A Streptococcus viability loss, dose response, counter-screen for streptokinase expression inhibitor project, luminescence, BacTiterGlo (AID 1915); format: functional, organism-based;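 note: potency for reduction of bacterial viability or growth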
# [10] = cytotoxicity in MIN6 insulinoma cells, dose response, cytotoxicity control, cell-based, mouse insulinoma (AID 2122); format: functional;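 note: confirmatory high-throughput counterscreen run to flag cytotoxic compounds; mouse MIN-6 beta cells carrying an insulin promoter eGFP reporter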
# [11] = insulin promoter down-regulators in MIN6 cells, imaging, high-content screening, mouse beta cells (AID 1628); format: functional
# [12] = target: T4, Lysine-specific demethylase 4C (Homo sapiens, UniProt Q9H3R0); assay: GASC-1 (JMJD2C) histone demethylase inhibitors, dose response, biochemical, DELFIA europium, cherry-picked samples (AID 488835); format: functional
# T4 sequence (Q9H3R0 whole entry): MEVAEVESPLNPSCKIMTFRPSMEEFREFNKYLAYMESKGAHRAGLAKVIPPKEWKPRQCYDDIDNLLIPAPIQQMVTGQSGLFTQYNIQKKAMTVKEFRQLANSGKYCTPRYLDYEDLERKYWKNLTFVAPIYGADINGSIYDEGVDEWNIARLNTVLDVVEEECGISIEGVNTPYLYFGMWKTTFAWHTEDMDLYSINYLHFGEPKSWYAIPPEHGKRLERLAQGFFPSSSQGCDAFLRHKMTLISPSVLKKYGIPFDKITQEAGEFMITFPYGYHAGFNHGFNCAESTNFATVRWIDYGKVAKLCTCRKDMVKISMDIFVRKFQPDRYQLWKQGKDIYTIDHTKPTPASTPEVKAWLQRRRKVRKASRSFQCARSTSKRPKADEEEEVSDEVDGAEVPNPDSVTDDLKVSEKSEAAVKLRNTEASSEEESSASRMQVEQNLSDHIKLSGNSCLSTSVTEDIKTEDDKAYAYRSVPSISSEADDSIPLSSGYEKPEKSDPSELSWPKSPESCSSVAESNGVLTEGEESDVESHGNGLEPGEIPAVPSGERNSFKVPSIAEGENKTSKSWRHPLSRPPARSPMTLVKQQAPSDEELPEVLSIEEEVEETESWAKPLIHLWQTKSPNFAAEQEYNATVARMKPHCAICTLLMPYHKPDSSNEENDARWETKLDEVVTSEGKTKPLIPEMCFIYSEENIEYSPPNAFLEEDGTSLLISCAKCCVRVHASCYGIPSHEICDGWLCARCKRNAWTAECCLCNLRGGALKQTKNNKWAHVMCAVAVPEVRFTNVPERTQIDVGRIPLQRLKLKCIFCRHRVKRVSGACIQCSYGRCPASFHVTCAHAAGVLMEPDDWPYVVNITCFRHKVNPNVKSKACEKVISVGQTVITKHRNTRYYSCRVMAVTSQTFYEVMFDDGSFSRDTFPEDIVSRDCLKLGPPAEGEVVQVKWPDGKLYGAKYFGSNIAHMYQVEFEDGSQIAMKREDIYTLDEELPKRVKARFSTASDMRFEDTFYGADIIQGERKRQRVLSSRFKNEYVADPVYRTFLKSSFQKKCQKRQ
# [13] = target: E3 ubiquitin-protein ligase Mdm2 (Homo sapiens, UniProt Q00987); assay: enhancers of MDM2-luciferase reporter signal, concentration-effect titration, project on inhibitors of MDM2 ubiquitin ligase, cellular assay, luminescent readout, 384-well plate format (AID 1394); format: functional;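 note: MDM2 E3 inhibitors raise luminescence so EC50 is for signal enhancement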
# [14] = target: T5, Long-chain-fatty-acid--AMP ligase FadD28 (Mycobacterium tuberculosis, UniProt P9WQ59); assay: Fluorescence polarization aasay to screen for inhibitors that compete for the binding of FadD28 to a bisubstrate Measured in Biochemical System Using Plate Reader - 2147-01_Inhibitor_Dose_CherryPick_Activity.; format: functional, Mycobacterium tuberculosis H37Rv
# T5 sequence (P9WQ59 whole entry): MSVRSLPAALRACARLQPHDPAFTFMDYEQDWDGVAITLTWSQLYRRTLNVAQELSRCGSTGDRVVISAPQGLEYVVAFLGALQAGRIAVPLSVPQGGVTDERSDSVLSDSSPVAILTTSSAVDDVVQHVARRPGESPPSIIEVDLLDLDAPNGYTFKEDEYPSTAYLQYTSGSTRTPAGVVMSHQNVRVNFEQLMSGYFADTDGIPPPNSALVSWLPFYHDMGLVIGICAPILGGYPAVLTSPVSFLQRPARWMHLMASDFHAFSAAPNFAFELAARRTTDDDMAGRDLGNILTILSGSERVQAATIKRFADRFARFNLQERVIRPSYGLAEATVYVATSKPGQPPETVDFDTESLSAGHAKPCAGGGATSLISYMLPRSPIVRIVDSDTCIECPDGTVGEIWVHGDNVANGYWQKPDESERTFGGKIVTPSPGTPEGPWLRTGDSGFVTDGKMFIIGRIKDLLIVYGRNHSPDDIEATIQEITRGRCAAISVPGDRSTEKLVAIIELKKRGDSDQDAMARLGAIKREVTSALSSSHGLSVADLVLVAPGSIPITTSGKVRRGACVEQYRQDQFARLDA
# [15] = target: Large T antigen (Simian virus 40, UniProt P03070); format: functional, Betapolyomavirus macacae;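 note: Confirmatory-stage PubChem screen for compounds that inhibit SV40 T antigen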
# [16] = test system: Escherichia coli; assay: microbe, parasite or virus in culture
# Delta-type opioid receptor, sequence (P41143 whole entry): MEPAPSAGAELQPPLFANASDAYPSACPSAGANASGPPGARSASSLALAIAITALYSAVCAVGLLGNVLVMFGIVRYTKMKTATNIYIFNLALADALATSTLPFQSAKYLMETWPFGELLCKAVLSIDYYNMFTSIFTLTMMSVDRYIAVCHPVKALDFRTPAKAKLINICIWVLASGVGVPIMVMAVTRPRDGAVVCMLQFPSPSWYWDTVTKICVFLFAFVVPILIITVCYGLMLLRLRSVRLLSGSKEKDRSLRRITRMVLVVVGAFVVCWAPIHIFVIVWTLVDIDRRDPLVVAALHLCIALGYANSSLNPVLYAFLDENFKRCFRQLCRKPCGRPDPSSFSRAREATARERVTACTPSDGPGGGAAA
# E3 ubiquitin-protein ligase Mdm2, sequence (Q00987 whole entry): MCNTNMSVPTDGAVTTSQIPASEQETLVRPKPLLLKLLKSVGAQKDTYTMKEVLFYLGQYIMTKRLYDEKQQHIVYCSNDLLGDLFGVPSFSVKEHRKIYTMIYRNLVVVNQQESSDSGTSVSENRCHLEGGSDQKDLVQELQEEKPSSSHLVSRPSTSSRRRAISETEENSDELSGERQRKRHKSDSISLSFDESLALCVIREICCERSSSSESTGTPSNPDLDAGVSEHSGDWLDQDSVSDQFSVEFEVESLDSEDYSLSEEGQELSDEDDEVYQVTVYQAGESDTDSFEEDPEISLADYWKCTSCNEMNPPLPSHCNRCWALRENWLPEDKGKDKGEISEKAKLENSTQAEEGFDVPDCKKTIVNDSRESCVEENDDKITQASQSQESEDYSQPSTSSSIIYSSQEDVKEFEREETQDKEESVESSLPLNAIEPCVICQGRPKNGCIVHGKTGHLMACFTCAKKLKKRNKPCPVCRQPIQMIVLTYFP
# Mu-type opioid receptor, sequence (P35372 whole entry): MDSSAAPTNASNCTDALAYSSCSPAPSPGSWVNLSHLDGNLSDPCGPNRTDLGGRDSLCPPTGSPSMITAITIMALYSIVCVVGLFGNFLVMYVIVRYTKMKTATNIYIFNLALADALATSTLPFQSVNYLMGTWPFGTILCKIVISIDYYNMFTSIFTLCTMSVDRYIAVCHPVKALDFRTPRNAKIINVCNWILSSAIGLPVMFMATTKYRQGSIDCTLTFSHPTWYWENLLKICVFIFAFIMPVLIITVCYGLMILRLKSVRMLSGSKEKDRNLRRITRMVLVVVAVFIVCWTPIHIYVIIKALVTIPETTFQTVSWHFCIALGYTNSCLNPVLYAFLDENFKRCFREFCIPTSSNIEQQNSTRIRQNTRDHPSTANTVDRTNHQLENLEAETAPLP
# Large T antigen, sequence (P03070 whole entry): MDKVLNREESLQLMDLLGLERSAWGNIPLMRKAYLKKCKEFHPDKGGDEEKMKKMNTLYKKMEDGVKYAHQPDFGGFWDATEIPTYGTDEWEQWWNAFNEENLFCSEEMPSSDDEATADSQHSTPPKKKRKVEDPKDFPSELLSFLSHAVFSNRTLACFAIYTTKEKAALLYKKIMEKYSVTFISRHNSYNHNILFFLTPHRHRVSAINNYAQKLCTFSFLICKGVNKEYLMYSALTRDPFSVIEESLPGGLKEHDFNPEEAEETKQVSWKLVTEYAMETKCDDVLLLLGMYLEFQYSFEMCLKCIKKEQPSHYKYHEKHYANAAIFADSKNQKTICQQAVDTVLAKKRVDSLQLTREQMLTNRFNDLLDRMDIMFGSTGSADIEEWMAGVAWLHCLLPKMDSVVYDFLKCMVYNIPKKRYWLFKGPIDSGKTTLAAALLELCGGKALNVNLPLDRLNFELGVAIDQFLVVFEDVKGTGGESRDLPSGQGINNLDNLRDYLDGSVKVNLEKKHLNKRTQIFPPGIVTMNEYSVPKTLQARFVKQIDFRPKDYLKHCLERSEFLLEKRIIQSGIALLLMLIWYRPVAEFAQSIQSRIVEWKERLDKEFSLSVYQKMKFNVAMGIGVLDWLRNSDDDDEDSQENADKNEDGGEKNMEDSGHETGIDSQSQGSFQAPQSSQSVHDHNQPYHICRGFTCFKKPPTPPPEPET
# 5-hydroxytryptamine receptor 5A, sequence (P47898 whole entry): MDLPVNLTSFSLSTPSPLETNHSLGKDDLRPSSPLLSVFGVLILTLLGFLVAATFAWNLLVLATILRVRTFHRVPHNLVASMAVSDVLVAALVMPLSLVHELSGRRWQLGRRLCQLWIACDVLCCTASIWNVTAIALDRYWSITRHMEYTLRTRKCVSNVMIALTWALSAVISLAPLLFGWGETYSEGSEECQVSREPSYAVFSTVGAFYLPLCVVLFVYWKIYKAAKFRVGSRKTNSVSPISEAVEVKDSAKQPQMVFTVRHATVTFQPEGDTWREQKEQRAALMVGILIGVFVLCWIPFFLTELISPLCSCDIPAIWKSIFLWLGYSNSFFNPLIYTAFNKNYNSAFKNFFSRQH
structure (smiles),measurement,setting,value
CN(C)C(CNC(=O)c1cccc(C(F)(F)F)c1)c1ccco1 (stereo unspecified),EC50,[1],> 92.4 µM (inactive)
same,EC50,[2],> 92.4 µM (inactive)
same,EC50,[3],> 92.4 µM (inactive)
same,EC50,[4],0.376 µM (active)
CCCc1ccc(Oc2c[nH]nc2-c2ccc(O)c(C)c2O)cc1,IC50,[5],38.2 µM (not active)
same,EC50,[6],> 150 µM (not active)
same,AC50,[7],3.08 µM (active)
same,CC50,[8],> 25 µM (active)
same,EC50,[9],8.83 µM (active)
Cn1c(=O)c2c(nc(NCc3ccc4c(c3)OCO4)n2Cc2ccccc2)n(C)c1=O,IC50,[10],0.541 µM (active)
same,IC50,[11],0.696 µM (active)
CCN1C(=O)C(=C/C=C/c2ccco2)C(=O)N(CC)C1=S,AC50,[12],1.18 µM (active)
same,EC50,[13],25 µM (not active)
same,AC50,[14],> 100 µM (inactive)
same,IC50,[15],45.3 µM (active)
Cc1nc(SCc2ccc(C(=O)O)cc2)c2c(C)c(C)sc2n1,AC50,[16],28.5 µM (active)
